Laboratory results from patent US6455270B1, “Method for inhibiting eukaryotic protein kinases” (TerraGen Discovery Inc., priority 1997, dated 2002).

How the values were obtained:
Streptomyces 85E = assay: Inhibition of sporulation in Streptomyces 85E (filter paper disc on freshly seeded plate); type: cell-based, Streptomyces WEC478-85E; conditions: for zone of inhibition at 10 µg/disc: Streptomyces, 85E, 10 ug compound applied to disc; for Growth of the vegetative mycelia: disc assay, 10 ug
Text: adding the material to be tested for kinase inhibitory activity to a growing culture of a prokaryotic organism such as a streptomycete;
allowing the culture to grow for a period of time in the presence of the material; and
observing the culture for altered development relative to development of the prokaryotic organism grown in the absence of the material. Observation of altered development is indicative that the material has activity as an inhibitor of post-translational protein phosphorylation. In particular, the material to be tested can be added to a growing culture of the prokaryotic organism by placing a carrier disk bearing the material on a freshly seeded plate. Inhibition of the development of aerial mycelia and spore formation is an indicator that the material has activity as an inhibitor of post-translational protein phosphorylation.
We have used a wild strain of Streptomyces isolated from soil and designated Streptomyces WEC478-85E (hereinafter strain 85E) to test lichen extracts. Strain 85E has been deposited with the American Type, Culture Collection in accordance with the provisions of the Budapest treaty and has been assigned Accession Number ATCC 55824.
In the test assay, the lichen-extract to be tested was applied to a filter paper disk and then placed on a plate which has been freshly seeded with the strain 85E test organism. The test organism is then allowed to grow in the presence of the filter paper disk for a period of 24 to 36 hours, after which the organism is evaluated for altered development in the zone around the disk. An observation of an inhibition of the formation of aerial mycelia and spores, without inhibition of the growth of vegetative mycelia is particularly indicative of the presence of an inhibitor of post-translational phosphorylation.

Human c-Src kinase = Human c-Src kinase (Homo sapiens, UniProt P12931); assay: Human c-Src kinase inhibition (PTK reaction); type: biochemical; conditions: 0.2 unit c-Src
Method: (§1) I. Human c-Src kinase incubated 30 min. at 30° C. with 5 ug usnic acid or-vulpinic acid: II. Human c-Src incubated 5 min. at 30° C. with 5 ug usnic acid or 5 ug vulpinic acid: 5 ug in the 50 ul PTK reaction mixture represents a concentration of about 300 uM for both of these compounds and twice that in the 25 ul PKC reactions. Thus, inhibition was detected for this particular protein tyrosine kinase and only minimally inhibitory for protein kinase C. Other protein kinases may show greater or lesser levels of inhibition.

Protein Kinase C = Protein Kinase C inhibition (PKC reaction); type: biochemical; conditions: 10 ng PKC, incubated 30 min. at 30° C. with 5 ug compound (about 600 uM in 25 ul)
Method: as §1, with “III. Protein Kinase C” for “I. Human c-Src kinase”, “30” for “30 min. at 30° C. with 5 ug usnic acid or-vulpinic acid: II. Human c-Src incubated 5”

Human c-Src kinase, sequence (P12931 whole entry): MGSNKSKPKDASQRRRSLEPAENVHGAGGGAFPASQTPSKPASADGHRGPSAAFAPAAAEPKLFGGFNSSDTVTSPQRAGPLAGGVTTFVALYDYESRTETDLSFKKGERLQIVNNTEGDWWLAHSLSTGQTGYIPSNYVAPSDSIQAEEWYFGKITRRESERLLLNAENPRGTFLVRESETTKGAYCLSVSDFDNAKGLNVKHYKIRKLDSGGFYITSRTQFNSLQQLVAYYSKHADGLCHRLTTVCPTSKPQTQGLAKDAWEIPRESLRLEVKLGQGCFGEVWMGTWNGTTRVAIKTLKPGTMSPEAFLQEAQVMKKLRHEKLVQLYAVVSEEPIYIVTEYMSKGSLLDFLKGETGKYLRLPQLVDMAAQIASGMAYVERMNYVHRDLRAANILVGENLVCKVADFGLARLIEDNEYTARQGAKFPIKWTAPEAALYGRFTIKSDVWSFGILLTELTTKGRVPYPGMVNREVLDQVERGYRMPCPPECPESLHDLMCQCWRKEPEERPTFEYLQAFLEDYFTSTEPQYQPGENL

SMILES | zone of inhibition at 10 µg/disc (Streptomyces 85E) [mm] | Growth of the vegetative mycelia (Streptomyces 85E) | c-Src kinase reaction reading (control reaction 0.208) (Human c-Src kinase; incubated 5 min. at 30° C. with 5 ug compound (about 300 uM in 50 ul)) | c-Src kinase reaction reading (control reaction 0.562) (Human c-Src kinase; incubated 30 min. at 30° C. with 5 ug compound (about 300 uM in 50 ul)) | Protein Kinase C reaction reading (control reaction 0.289) (Protein Kinase C)
CC(=O)c1c(O)c(C)c(O)c2c1OC1=CC(=O)C(C(C)=O)C(=O)C12C (stereo not shown) [usnic acid] | 15 | not inhibited | – | – | –
COC(=O)/C(=C1/OC(=O)C(c2ccccc2)=C1O)c1ccccc1 [vulpinic acid] | 15 | not inhibited | 0.180 | 0.483 | 0.230
